In the assay the test system is Mycobacterium tuberculosis variant bovis. Description: Antibacterial activity against Mycobacterium bovis BCG assessed as inhibition of bacterial growth incubated for 4 to 7 days. The format is functional. As to conditions: time 4-7 day.

SMILES strings stand for the structures. ≈ marks a conversion by molar mass, not a printed value.

MIC99 data for one compound are collected here from ChEMBL document CHEMBL5137025, “Tuberculosis Drug Discovery: Challenges and New Horizons” (J Med Chem, 2022).

`Nc1nc(N)c(N=O)c(OCC2CCCCC2)n1`: the MIC99 was 1.6 µM (≈ 0.402 µg/mL).

By MIC99 is commonly meant an inhibitory concentration at the 99% level, which refers to growth in some studies and to a panel of isolates in others.
